A word on the MIC: it is the lowest concentration that inhibits growth of the organism. A high value points to a need for much substance.

This is an account of results in DBAASP.

Some test systems named below: Streptococcus sanguinis; Staphylococcus aureus; Escherichia coli UTI89; Escherichia coli ST131; Escherichia coli; Escherichia coli 1005; Candida albicans.
Holding throughout (experiment): ≥ marks a high value that may be exact or a test limit, other limits are often not marked, values filed in µg/mL are converted to µM
Experiment [1] relates to Staphylococcus aureus USA 300.
In experiment [2] the test system is Staphylococcus aureus ATCC 29213.
Experiment [3] has as its system Escherichia coli NCTC 12923.
For experiment [4], the system named is Enterococcus faecalis ATCC 19433.
The subject of experiment [5] is Staphylococcus aureus ATCC 43300.
The subject of experiment [6] is Acinetobacter baumannii ATCC 17978.
Experiment [7] concerns Staphylococcus aureus ATCC 9144.
For experiment [8], the system named is Klebsiella pneumoniae NCTC 13368.
The subject of experiment [9] is Staphylococcus aureus ATCC BAA-41.
For experiment [10], the system named is Enterococcus faecalis ATCC BAA-2365.
Experiment [11] has as its system Staphylococcus epidermidis ATCC 12228.
Experiment [12] concerns Pseudomonas aeruginosa PAO1.
Experiment [13] has as its system Enterococcus faecium ATCC BAA-2316.
Experiment [14] deals with Staphylococcus aureus ATCC 33591.
The test system of experiment [15] is Enterococcus faecalis ATCC 29212.
Experiment [16] has as its system Escherichia coli K12 MG1655.
Experiment [17] deals with Staphylococcus epidermidis.
The subject of experiment [18] is Salmonella enterica subsp. enterica serovar Typhimurium ATCC 14028.
In experiment [19] the test system is Staphylococcus aureus ATCC 19636.
Experiment [20] deals with Staphylococcus aureus ATCC 25923.
Experiment [21] relates to Pseudomonas aeruginosa ATCC 9027.
The test system of experiment [22] is Pseudomonas aeruginosa ATCC 27853.
Experiment [23] concerns Escherichia coli ATCC 25922.
The test system of experiment [24] is Klebsiella pneumoniae ST258.
For experiment [25], the system named is Salmonella enterica subsp. enterica serovar Pullorum.
Experiment [26] has as its system Candida albicans ATCC 90029.
The test system of experiment [27] is Salmonella enterica subsp. enterica serovar Pullorum CVCC 3533.
Experiment [28] concerns Candida albicans ATCC 14053.
Experiment [29] deals with Micrococcus luteus ATCC 49732.
The subject of experiment [30] is Escherichia coli ATCC 11775.
The subject of experiment [31] is Staphylococcus aureus ATCC 12600.
The test system of experiment [32] is Candida tropicalis CGMCC 2.1975.
The subject of experiment [33] is Candida krusei CGMCC 2.1857.
The subject of experiment [34] is Candida parapsilosis CGMCC 2.3989.
Experiment [35] concerns Salmonella enterica subsp. enterica serovar Pullorum ATCC 7913.

Values after ≈ are worked out from the molar mass of the structure shown.

`NC(=O)[C@H](Cc1ccccc1)NC(=O)[C@H](Cc1ccccc1)NC(=O)[C@H](Cc1ccccc1)NC(=O)[C@H](Cc1ccccc1)NC(=O)[C@H](Cc1ccccc1)NC(=O)[C@@H](N)Cc1ccccc1` [FFFFFF]: the values for the MIC against Streptococcus sanguinis and in the experiment with Staphylococcus aureus were 8.3 µM (≈ 7.48 µg/mL) and 14.3 µM (≈ 12.8 µg/mL), respectively.

Take `CC[C@H](C)[C@H](NC(=O)[C@H](C)NC(=O)[C@H](CCCCN)NC(=O)[C@H](CCCN=C(N)N)NC(=O)[C@@H](NC(=O)[C@H](CC(C)C)NC(=O)[C@H](CO)NC(=O)[C@H](Cc1ccccc1)NC(=O)[C@H](CC(C)C)NC(=O)[C@@H](N)Cc1ccccc1)[C@@H](C)CC)C(=O)NCC(=O)NCC(=O)N[C@@H](CC(C)C)C(=O)N[C@H](C(=O)N[C@@H](CO)C(=O)N[C@@H](C)C(=O)N[C@@H](Cc1ccccc1)C(=O)N[C@@H](CCCCN)C(=O)O)[C@@H](C)CC` [FLFSLIRKAIGGLISAFK]: the MIC in [1] is 16.1 µM (≈ 32 µg/mL); in experiment [2], 5 µM (≈ 9.91 µg/mL); in experiment [3], no less than 64.6 µM; in experiment [4], 12.5 µM (≈ 24.8 µg/mL); in experiment [5] it was 5 µM (≈ 9.91 µg/mL); in [6], 4.04 µM (≈ 8 µg/mL). For the same compound, the MIC in experiment [7] was 8.07 µM (≈ 16 µg/mL); in experiment [8], no less than 64.6 µM; in [9], 5 µM (≈ 9.91 µg/mL); in experiment [10] it was 5 µM (≈ 9.91 µg/mL); in experiment [11] it was 2.5 µM (≈ 4.95 µg/mL); in [12], greater than 64.6 µM. Moreover, the MIC was determined as 15 µM (≈ 29.7 µg/mL) in experiment [13], 5 µM (≈ 9.91 µg/mL) in [14] and 10 µM (≈ 19.8 µg/mL) in experiment [15].

Take `CC[C@H](C)[C@H](NC(=O)[C@H](CCCN=C(N)N)NC(=O)[C@H](CCC(N)=O)NC(=O)[C@H](Cc1c[nH]c2ccccc12)NC(=O)[C@@H](NC(=O)[C@H](CCCCN)NC(=O)[C@@H](N)CCCCN)[C@@H](C)CC)C(=O)N[C@@H](CCCCN)C(=O)N[C@@H](CC(N)=O)C(=O)N[C@@H](Cc1ccccc1)C(=O)N[C@@H](Cc1ccccc1)C(=O)N[C@@H](CCC(N)=O)C(=O)N[C@@H](CCCCN)C(=O)N[C@@H](CC(C)C)C(=O)O` [KKIWQRIKNFFQKL]: the MIC in experiment [16] is 7 µM (≈ 13.1 µg/mL); in the experiment on Escherichia coli UTI89 it was 6.25 µM (≈ 11.7 µg/mL); in experiment [17], no less than 50 µM; in experiment [18], 29 µM (≈ 54.4 µg/mL).

Take `CC(C)C[C@H](NC(=O)[C@H](C)NC(=O)[C@H](CCCCN)NC(=O)[C@H](CC(C)C)NC(=O)[C@H](Cc1c[nH]c2ccccc12)NC(=O)[C@H](CCCCN)NC(=O)[C@H](CCCN=C(N)N)NC(=O)[C@H](Cc1c[nH]c2ccccc12)NC(=O)[C@H](CCCCN)NC(=O)[C@@H](N)CCCCN)C(=O)N[C@@H](C)C(=O)N[C@@H](CCCCN)C(=O)N[C@@H](CCCCN)C(=O)O` [KKWRKWLKALAKK]: the MIC in [19] was 3.74 µM (≈ 6.3 µg/mL); in [20], greater than 29.7 µM; in [2] it was 29.7 µM (≈ 50 µg/mL); in experiment [21], 14.8 µM (≈ 25 µg/mL); in experiment [22], 14.8 µM (≈ 25 µg/mL); in experiment [23], 7.42 µM (≈ 12.5 µg/mL).

Regarding `CC(C)C[C@H](NC(=O)[C@H](Cc1c[nH]c2ccccc12)NC(=O)[C@H](CCCCN)NC(=O)[C@H](CC(C)C)NC(=O)[C@H](Cc1c[nH]c2ccccc12)NC(=O)[C@H](CCCCN)NC(=O)[C@H](CCCN=C(N)N)NC(=O)[C@H](Cc1c[nH]c2ccccc12)NC(=O)[C@H](CCCCN)NC(=O)[C@@H](N)CCCCN)C(=O)N[C@@H](C)C(=O)N[C@@H](CCCCN)C(=O)N[C@@H](CCCCN)C(N)=O` [KKWRKWLKWLAKK], the MIC is 4 µM (≈ 7.19 µg/mL) in experiment [24], 2 µM (≈ 3.6 µg/mL) in the experiment with Escherichia coli ST131 and 2 µM (≈ 3.6 µg/mL) in experiment [23].

Consider `CC(C)C[C@H](NC(=O)[C@H](CCCCN)NC(=O)[C@H](Cc1cnc[nH]1)NC(=O)[C@H](CCCCN)NC(=O)[C@H](CC(C)C)NC(=O)[C@H](CC(C)C)NC(=O)[C@@H](N)CCCCN)C(=O)N[C@@H](CC(C)C)C(=O)N[C@H](C(=O)N[C@H](C(=O)N[C@@H](CC(C)C)C(=O)N[C@@H](C)C(=O)O)[C@@H](C)O)C(C)C` [KLLKHKLLVTLA], for which the MIC in experiment [25] was 4.54 µM (≈ 6.25 µg/mL); in experiment [26], no less than 36.3 µM; in experiment [2], 18.2 µM (≈ 25 µg/mL); in [27] it was 4.54 µM (≈ 6.25 µg/mL); against Staphylococcus aureus, 18.2 µM (≈ 25 µg/mL); in the experiment on Escherichia coli it was 18.2 µM (≈ 25 µg/mL). The same compound yielded an MIC in [23] of 9.08 µM (≈ 12.5 µg/mL).

For `C[C@H](NC(=O)[C@H](C)NC(=O)[C@@H](NC(=O)CNC(=O)[C@@H]1CCCN1)[C@@H](C)O)C(=O)N[C@@H](Cc1ccccc1)C(=O)N[C@@H](CCCCN)C(=O)O` [PGTAAFK], the MIC was no less than 36 µM in experiment [28], no less than 36 µM in [29], no less than 128 µM in experiment [30] and no less than 967 µM in [31].

As to `CC[C@H](C)[C@H](NC(=O)[C@H](CCCN=C(N)N)NC(=O)[C@@H](NC(=O)[C@@H](NC(=O)[C@@H](NC(=O)[C@H](CCCN=C(N)N)NC(=O)[C@@H](NC(=O)[C@H](CCCN=C(N)N)NC(=O)[C@@H](N)CCCN=C(N)N)[C@@H](C)CC)[C@@H](C)CC)[C@@H](C)CC)[C@@H](C)CC)C(=O)N[C@@H](CCCN=C(N)N)C(=O)N[C@@H](CCCN=C(N)N)C(N)=O` [RRIRIIIRIRR], the MIC was determined as 4 µM (≈ 6.08 µg/mL) against Escherichia coli 1005; 4 µM (≈ 6.08 µg/mL) in experiment [20]; 4 µM (≈ 6.08 µg/mL) in experiment [2]; 4 µM (≈ 6.08 µg/mL) in experiment [5]; 1.41 µM (≈ 2.15 µg/mL) against Candida albicans; 1 µM (≈ 1.52 µg/mL) in [32]. For the same compound, the minimum inhibitory concentration (MIC) was found to be 4 µM (≈ 6.08 µg/mL) in experiment [11]; 2 µM (≈ 3.04 µg/mL) in [33]; 4 µM (≈ 6.08 µg/mL) in experiment [34]; 2 µM (≈ 3.04 µg/mL) in [35]; 4 µM (≈ 6.08 µg/mL) in [18].
